From US11492357B2, “Thieno[3,2-d]pyrimidine derivative compound having inhibitory activity for protein kinase” (Hanmi Pharm. Co., Ltd., priority 2017, dated 2022) come the findings set out here.

Where a name gives a salt, the structure may show the parent alone.

One assay concerns the target B-RAF V600E (Homo sapiens (Human), UniProt P15056, V600E). Nature of the assay: RAF kinase inhibitory activity, Kinase Profiling Service. It is filed as biochemical. The protocol: (§1) The levels of enzymatic inhibition of the compound were calculated as percent inhibition at various concentrations. Based on percent inhibition, dose-response curves were plotted using GraphPad Prism software.

The target of the next assay is B-RAF wild type (Homo sapiens (Human), UniProt P15056). The description is as above. It is filed as biochemical. Conditions: read-out: B-RAF WT (IC50). As to the method:
as §1

A further assay has as its target RAF1 (C-RAF) Y340D/Y341D (Homo sapiens (Human), UniProt P04049, Y340D/Y341D). Described as above. It is filed as biochemical. As to the method: as §1
Assay [1] has as its system SK-MEL-30 melanoma cells (N-RAS Q61K mutant). Nature of the assay: Inhibition of cell growth of N-RAS Q61K mutant SK-MEL-30 cells (SRB). It is filed as cell-based. Conditions: Homo sapiens, 72 hours incubation, SRB staining. As to the method:
N-RAS^Q61K mutant SK-MEL-30 melanoma cell line (ACC-151) was obtained from DSMZ (Deutsche Sammlung von Mikroorganismen und Zellkulturen GmbH, Germany). SK-MEL30 cells express wildtype B-RAF and mutant N-RAS (Q61K). SK-MEL-30 cells were incubated in a RPMI medium supplemented with 10% FBS and 1% penicillin/streptomycin (Gibco BRL) under 37° C., 5% CO2 and 95% air. Cells were seeded in 96-well plates at a density of 5,000 cells/well, and cultured for 18 hours or more. Then cells were treated with 0.1-10 μM (1/10 serial dilution) of test compounds, and incubated for 72 hours.
To evaluate cell viabilities, SK-MEL-30 cell lines were fixed with 10% TCA (trichloroacetic acid), stained with SRB (sulforhodamine B), and the absorbance was measured at 540 nm. Then, GI50, i.e., the concentration of drug to cause 50% reduction in proliferation of cancer cells, was calculated therefrom. The growth rates of cancer cells were calculated by Equation 1 or 2. [(Ti−Tz)/(C−Tz)]×100 (for […]) Equation 1 [(Ti−Tz)/Tz]×100 (for Ti<Tz) Equation 2
In Equation 1 and 2, ‘Tz’ refers to the density of untreated cells, which is the absorbance in 0% cell growth groups. ‘C’ refers to the density of cells cultured by adding only medium, and ‘Ti’ refers to the density of cells treated with test compounds. […]

Sequence of RAF1 (C-RAF) Y340D/Y341D (P04049 whole entry Y340D/Y341D): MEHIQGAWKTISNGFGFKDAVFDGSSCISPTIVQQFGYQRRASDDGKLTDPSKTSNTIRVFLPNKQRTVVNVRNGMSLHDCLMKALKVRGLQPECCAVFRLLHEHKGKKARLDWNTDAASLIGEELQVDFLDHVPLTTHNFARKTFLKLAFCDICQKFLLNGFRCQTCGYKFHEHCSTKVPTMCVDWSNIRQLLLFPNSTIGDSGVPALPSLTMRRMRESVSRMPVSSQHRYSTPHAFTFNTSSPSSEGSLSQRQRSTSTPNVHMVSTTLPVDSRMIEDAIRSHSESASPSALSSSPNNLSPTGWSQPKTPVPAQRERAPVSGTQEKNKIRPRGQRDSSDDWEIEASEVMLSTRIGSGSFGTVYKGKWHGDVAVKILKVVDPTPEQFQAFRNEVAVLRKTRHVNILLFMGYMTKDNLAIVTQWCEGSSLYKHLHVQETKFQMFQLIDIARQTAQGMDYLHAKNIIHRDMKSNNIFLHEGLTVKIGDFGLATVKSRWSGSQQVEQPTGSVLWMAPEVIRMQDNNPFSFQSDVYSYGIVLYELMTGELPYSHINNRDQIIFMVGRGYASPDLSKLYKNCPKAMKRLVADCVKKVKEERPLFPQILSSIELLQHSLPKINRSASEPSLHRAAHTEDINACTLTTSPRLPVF
Sequence of B-RAF V600E (P15056 whole entry V600E): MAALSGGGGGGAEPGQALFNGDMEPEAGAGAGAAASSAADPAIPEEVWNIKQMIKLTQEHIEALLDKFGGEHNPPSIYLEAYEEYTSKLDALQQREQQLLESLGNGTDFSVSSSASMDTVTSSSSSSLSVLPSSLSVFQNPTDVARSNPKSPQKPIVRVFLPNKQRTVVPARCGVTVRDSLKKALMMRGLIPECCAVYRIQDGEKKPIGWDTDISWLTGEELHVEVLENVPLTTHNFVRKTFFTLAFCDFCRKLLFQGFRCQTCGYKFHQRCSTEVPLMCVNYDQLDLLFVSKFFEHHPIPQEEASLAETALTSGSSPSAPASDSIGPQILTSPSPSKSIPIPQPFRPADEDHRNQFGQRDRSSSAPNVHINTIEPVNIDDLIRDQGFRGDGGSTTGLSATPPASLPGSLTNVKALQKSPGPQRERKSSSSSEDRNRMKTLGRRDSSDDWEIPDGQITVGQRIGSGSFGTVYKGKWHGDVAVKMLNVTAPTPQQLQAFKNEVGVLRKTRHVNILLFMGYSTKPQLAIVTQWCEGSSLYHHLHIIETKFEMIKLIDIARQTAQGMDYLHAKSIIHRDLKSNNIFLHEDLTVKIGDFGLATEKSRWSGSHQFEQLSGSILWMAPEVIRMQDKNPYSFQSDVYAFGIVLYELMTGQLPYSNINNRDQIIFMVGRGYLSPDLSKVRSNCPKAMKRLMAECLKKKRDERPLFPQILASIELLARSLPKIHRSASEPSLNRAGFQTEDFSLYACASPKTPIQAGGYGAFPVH
Sequence of B-RAF wild type (P15056 whole entry): as the sequence (P15056 whole entry V600E) above, with E600V counted along it

The IC50 is the concentration that gives 50% inhibition. Broadly, the GI50 is the concentration giving 50% growth inhibition. Read a high GI50 as lower sensitivity of the cells. With `Cc1ccc2c(Nc3ccc(O)c(Cl)c3F)nccc2c1NC(=O)c1csc2c(N)ncnc12` [Compound•2HCl, 4-amino-N-(1-((3-chloro-2-fluoro-4-hydroxyphenyl)amino)-6-methylisoquinolin-5-yl)thieno[3,2-d]pyrimidine-7-carboxamide dihydrochloride], the half-maximal inhibitory concentration (IC50) at B-RAF V600E turned out to be 30 nM; on B-RAF wild type it was 392 nM; against RAF1 (C-RAF) Y340D/Y341D, 21 nM. For the same compound, it took 231 nM to inhibit growth in assay [1] by half (GI50).

Consider `CCCS(=O)(=O)Nc1ccc(F)c(C(=O)c2c[nH]c3ncc(-c4ccc(Cl)cc4)cc23)c1F` [Control, vemurafenib, reference compound], for which, in assay [1], the GI50 was greater than 10000 nM.
